According to PubChem BioAssay AID248 (DTP/NCI, 2004):
Where “and” joins values, the source holds several entries; their conditions need not be identical. Identical values can stand only once. Toxic doses and inconclusive results are not listed. No stated cut-off is given here; in the data, active means T/C of 150% or more; inactive means T/C below 125%.

Test system: L1210 leukemia ip in BDF1 mice, survival T/C
Experiment: NCI In Vivo Anticancer Drug Screen. Data for tumor model L1210 Leukemia (intraperitoneal) in B6D2F1 (BDF1) mice
Conditions: endpoint: mean survival time, higher = longer survival
How it was run: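 Value reflects the ratio of survival in compound-treated mice to survival in vehicle-treated controls, with both groups carrying the same transplanted tumor.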

[1] = dose: 100.0 mg/kg/injection, schedule: Q04DX003 (ip), vehicle: carboxymethylcellulose (CMC)
[2] = dose: 100.0 mg/kg/injection, schedule: Q04DX003 (ip), vehicle: saline with Tween-80
[3] = dose: 25.0 mg/kg/injection, schedule: Q01DX001 (ip), vehicle: carboxymethylcellulose (CMC)
[4] = dose: 50.0 mg/kg/injection, schedule: Q01DX001 (ip), vehicle: carboxymethylcellulose (CMC)
[5] = dose: 100.0 mg/kg/injection, schedule: Q01DX009 (ip), vehicle: Klucel (hydroxypropylcellulose) (HPC)
[6] = dose: 200.0 mg/kg/injection, schedule: Q01DX009 (ip), vehicle: Klucel (hydroxypropylcellulose) (HPC)
[7] = dose: 400.0 mg/kg/injection, schedule: Q01DX009 (ip), vehicle: Klucel (hydroxypropylcellulose) (HPC)

Measured: T/C

C/C(=C/c1c(C)cc(C)c(NC(=O)c2ccc([N+](=O)[O-])cc2)c1C)CBr
inactive: dose: 100.0 mg/kg/injection, schedule: Q01DX001 (ip), vehicle: Klucel (hydroxypropylcellulose) (HPC) 93 % of control | dose: 100.0 mg/kg/injection, schedule: Q04DX003 (ip), vehicle: Klucel (hydroxypropylcellulose) (HPC) 97 % of control | dose: 200.0 mg/kg/injection, schedule: Q01DX001 (ip), vehicle: Klucel (hydroxypropylcellulose) (HPC) 102 % of control | dose: 200.0 mg/kg/injection, schedule: Q04DX003 (ip), vehicle: Klucel (hydroxypropylcellulose) (HPC) 92 % of control | dose: 400.0 mg/kg/injection, schedule: Q01DX001 (ip), vehicle: Klucel (hydroxypropylcellulose) (HPC) 96 % of control | dose: 400.0 mg/kg/injection, schedule: Q04DX003 (ip), vehicle: Klucel (hydroxypropylcellulose) (HPC) 92 % of control

O=C(O)c1ccccc1CN1CCCC(C(=O)O)C1 (stereo unspecified)
inactive: dose: 6.25 mg/kg/injection, schedule: Q01DX009 (ip), vehicle: saline with Tween-80 101 % of control | dose: 12.5 mg/kg/injection, schedule: Q01DX009 (ip), vehicle: saline with Tween-80 97 % of control | dose: 25.0 mg/kg/injection, schedule: Q01DX009 (ip), vehicle: saline with Tween-80 92 % of control

O=[N+]([O-])c1cc(S(=O)(=O)O)ccc1Cl
inactive: [1] 100 % of control | [2] 98 % of control | dose: 200.0 mg/kg/injection, schedule: Q04DX003 (ip), vehicle: carboxymethylcellulose (CMC) 101 % of control | dose: 200.0 mg/kg/injection, schedule: Q04DX003 (ip), vehicle: saline with Tween-80 102 % of control | dose: 400.0 mg/kg/injection, schedule: Q04DX003 (ip), vehicle: carboxymethylcellulose (CMC) 97 % of control | dose: 400.0 mg/kg/injection, schedule: Q04DX003 (ip), vehicle: saline with Tween-80 101 % of control

O=C(c1ccccc1)c1ccc(NC(=S)Nc2ccc(C(=O)c3ccccc3)cc2)cc1
inactive: dose: 20.0 mg/kg/injection, schedule: Q01DX005 (ip), vehicle: saline with Tween-80 97 % of control | dose: 40.0 mg/kg/injection, schedule: Q01DX005 (ip), vehicle: saline with Tween-80 92 % of control | dose: 80.0 mg/kg/injection, schedule: Q01DX005 (ip), vehicle: saline with Tween-80 92 % of control | dose: 160.0 mg/kg/injection, schedule: Q01DX005 (ip), vehicle: saline with Tween-80 95 % of control | dose: 320.0 mg/kg/injection, schedule: Q01DX005 (ip), vehicle: saline with Tween-80 97 % of control

CCOC(=O)c1ccc2c(ccc3ccccc32)n1
inactive: [3] 97 % of control | dose: 25.0 mg/kg/injection, schedule: Q01DX009 (ip), vehicle: carboxymethylcellulose (CMC) 98 % of control and 102 % of control | dose: 25.0 mg/kg/injection, schedule: Q04DX002 (ip), vehicle: carboxymethylcellulose (CMC) 93 % of control and 104 % of control | dose: 25.0 mg/kg/injection, schedule: Q04DX003 (ip), vehicle: carboxymethylcellulose (CMC) 108 % of control | [4] 102 % of control | dose: 50.0 mg/kg/injection, schedule: Q01DX009 (ip), vehicle: carboxymethylcellulose (CMC) 94 % of control and 98 % of control | dose: 50.0 mg/kg/injection, schedule: Q04DX002 (ip), vehicle: carboxymethylcellulose (CMC) 97 % of control | dose: 50.0 mg/kg/injection, schedule: Q04DX003 (ip), vehicle: carboxymethylcellulose (CMC) 102 % of control | dose: 100.0 mg/kg/injection, schedule: Q01DX001 (ip), vehicle: carboxymethylcellulose (CMC) 94 % of control | dose: 100.0 mg/kg/injection, schedule: Q01DX009 (ip), vehicle: carboxymethylcellulose (CMC) 100 % of control | dose: 100.0 mg/kg/injection, schedule: Q04DX002 (ip), vehicle: carboxymethylcellulose (CMC) 93 % of control and 101 % of control | [1] 105 % of control

C=CCNC(=S)Nc1ccc(O)cc1
inactive: [5] 91 % of control | [6] 97 % of control | [7] 96 % of control

C[N+](C)(CC(=O)Nc1ccc(Cl)c(C(F)(F)F)c1)Cc1ccc(Cl)cc1
inactive: [2] 100 % of control

CC(CCC(=O)O)Cc1ccccc1 (stereo unspecified)
inactive: dose: 25.0 mg/kg/injection, schedule: Q01DX009 (ip), vehicle: saline 101 % of control | dose: 50.0 mg/kg/injection, schedule: Q01DX009 (ip), vehicle: saline 101 % of control | dose: 100.0 mg/kg/injection, schedule: Q01DX009 (ip), vehicle: saline 86 % of control

Cc1cccc(Cl)c1NC(=O)Nc1ccc(CCO)cc1
inactive: [5] 103 % of control | [6] 97 % of control | [7] 94 % of control

COc1ccc2c(c1)/C(=C/CCN(C)C)c1ccccc1S2
inactive: dose: 6.0 mg/kg/injection, schedule: Q01DX Z (ip), vehicle: methylcellulose (MC) 110 % of control | dose: 6.25 mg/kg/injection, schedule: Q01DX009 (ip), vehicle: carboxymethylcellulose (CMC) 97 % of control | dose: 12.0 mg/kg/injection, schedule: Q01DX Z (ip), vehicle: methylcellulose (MC) 114 % of control | dose: 12.5 mg/kg/injection, schedule: Q01DX001 (ip), vehicle: carboxymethylcellulose (CMC) 100 % of control | dose: 12.5 mg/kg/injection, schedule: Q01DX009 (ip), vehicle: carboxymethylcellulose (CMC) 108 % of control | dose: 12.5 mg/kg/injection, schedule: Q04DX003 (ip), vehicle: other 105 % of control | dose: 15.0 mg/kg/injection, schedule: Q01DX Z (ip), vehicle: methylcellulose (MC) 104 % of control | dose: 20.0 mg/kg/injection, schedule: Q01DX Z (ip), vehicle: methylcellulose (MC) 119 % of control | [3] 100 % of control | dose: 25.0 mg/kg/injection, schedule: Q04DX003 (ip), vehicle: other 101 % of control | [4] 114 % of control

N=C(N)c1ccc(NC(=O)c2ccc(C(=O)Nc3ccc(C(=N)N)cc3)c(N)c2)cc1
inactive: dose: 62.0 mg/kg/injection, schedule: Q01DX Z (ip), vehicle: carboxymethylcellulose (CMC) 106 % of control | dose: 125.0 mg/kg/injection, schedule: Q01DX Z (ip), vehicle: carboxymethylcellulose (CMC) 118 % of control | dose: 500.0 mg/kg/injection, schedule: Q01DX Z (ip), vehicle: carboxymethylcellulose (CMC) 113 % of control
